Source: patent US8304238B2, “Cell culture medium and immobilized preparation of cell adhesion protein or peptide” (Nat'l Institute for Environmental Studies, priority 2003, dated 2012)
Where no end group is shown, it is not given here.

Experiments:
Assay type in all cases: cell-based
[1] = tested on: alveolar type II epithelial cells (T2 cells); assay: Inhibition of T2 cell adhesion to immobilized cell adhesion peptide substrates by heparin treatment; conditions: 24-hour culture; for Inhibition of cell adhesion to immobilized peptide by heparin treatment: 100 μg/ml heparin 2 hours
Experimental: 100 μg/ml of heparin solution was poured into a well prepared according to the method in Example 6, wherein the cell adhesion peptides were immobilized, and the incubation was conducted for 2 hours. The heparin solution was removed after heparin bound to the immobilized cell adhesion peptides, and T2 cell suspension was seeded on the well.
It is theoretically shown that after the cell adhesion peptides first bind to heparin and are covered with heparin, the cell adhesion receptors having heparin-like sugar chain (heparan sulfate) present on the cell surface, in other words, syndecan, a protein that belongs to heparan sulfate proteoglycan, cannot bind to the cell adhesion peptides by using the sugar chain part of the heparan sulfate, thereby the cell adhesion is inhibited.

[2] = tested on: alveolar type II epithelial cells (T2 cells); assay: Binding strength (affinity) of immobilized LN peptides to T2 cells relative to immobilized FIB-1 (mixed immobilization, free FIB-1 competition); set-up: key to Binding strength to T2 cells, Comprehensive evaluation: AA: extremely strongly binding/adhering; A: strongly binding/adhering; B: intermediately binding/adhering (as the same degree as FIB-1 peptide); C: more weakly binding/adhering than FIB-1 peptide; conditions: for Binding strength to T2 cells, Comprehensive evaluation: classification relative to FIB-1 peptide; for Binding strength to T2 cells, Ratio to FIB-1: inverse of mixing ratio at transitional midpoint, MMAC-coated well; for Binding strength to T2 cells, Ratio to FIB-1 / Mixing ratio at the transitional midpoint: FIB-1 0.25 mg/ml; for Mixing ratio at the transitional midpoint: peptide:FIB-1 co-immobilized, loss of inhibition by free FIB-1
Experimental: Therefore, the amount of FIB-1 peptide was set at 0.25 mg/ml, and AG73 peptide was mixed therewith, while changing its concentration ratio, from 1/1.250 of FIB-1 in an amount which is 0.20 μg/ml, to ½ of FIB-1 in an amount which is 0.125 mg/ml, and the mixture was immobilized on a well wherein a hydrophobic binding-adsorptive polymer MMAC was coated. The amount of cell adhesion in the case where T2 cells were cultured under a serum-free condition for 1 day on the immobilized peptides is shown in FIG. 9, in comparison with the case where the culture was conducted on the immobilized FIB-1, which was set at 100%.
However, in a case that the ratio of FIB-1:AG73 increased to 1:0.02, because T2 cells already transited to be adherent through the immobilized AG73 peptide, free FIB-1 peptide could no longer inhibit the cell adhesion. […] Likewise, with regard to A3G72 and A4G82 peptides, because the mixing ratio at the transitional midpoint=0.1, their binding strength to T2 cells is 10 times as much as that of FIB-1.
The method used in FIGS. 8 and 9 is extremely effective as a convenient method by which a relative order can be measured concerning to the binding strength (affinity) of cell adhesion peptides and the strength of cell adhesion can be considered quantitatively.
In Table 1, the classification is shown based on the results of the affinity (bonding/adhesion strength) between FIB-1 peptide containing RGD amino acid sequence of FN molecule, a binding site to integrin, and T2 cells: laminin α-chain G-domain peptides are classified into class AA, extremely strong binding/adhesion; class A, strong adhesion; class B, adhesion as the same degree as FIB-1; and class C, binding weaker than the described above.

[3] = tested on: alveolar type II epithelial cells (T2 cells); assay: Inhibition by free cell adhesion peptides of T2 cell adhesion to coated cell adhesion proteins FN, Col I, LN, VN; conditions: free peptide 0.25 mg/ml; serum-free, 1 day
Experimental: Commercially available FN, LN and VN, usually used as cell adhesion proteins at cell culture, were coated to wells at the concentrations of 5 μg/ml, 10 μg/ml and 10 μg/ml, respectively. In case of Col I (collagen type I), Col I at the concentration of 100 μg/ml, dissolved in 1 mM HCl, was poured into a well, left stand still for a while, and then the solution was removed and air-drying was conducted, and rinsed with the medium, before use. Next, 6×10^5 cells/ml of alveolar type II epithelial cells (T2 cells) suspended in the serum-free DMEM medium was seeded by 100 μl each on a 96-well to which the extracellular matrix was coated, and cultured in a CO2 incubator at 37° C. for 1 day. After the culture was finished, the cells were fixed with 100 μl of methanol for 5 minutes, and stained for 30 minutes with 50 μl of 0.4% crystal violet. Excessive staining was washed with water, then the number of cells adhered to FN, Col I, LN and VN, which had been coated to the wells, was counted based on the absorbance of cytoplasm (A595).
On the other hand, among amino acid sequences of various LN molecules, the sequences that induce cell adhesion are known to be present. […] Then, the number of cells was counted in accordance with the method described above.

[4] = tested on: alveolar type II epithelial cells (T2 cells); assay: Inhibition of T2 cell adhesion by free peptide different from the immobilized peptide substrate; conditions: for Inhibition by free peptide of T2 cell adhesion to immobilized AG73: AG73 (etc.) immobilized; for Inhibition by free peptide of T2 cell adhesion to immobilized FIB-1: FIB-1 immobilized; for Inhibition by free peptide of T2 cell adhesion to immobilized AG81.2 and AG73T: AG81.2 and AG73T immobilized
Experimental: Results obtained by adding the free peptides different from the immobilized peptides when T2 cells were cultured on the immobilized peptide prepared according to the method in Example 7, were shown in FIG. 8.
When adding the free peptides that were the same as the immobilized peptides in the culture medium, the both (free and immobilized) peptides compete for syndecan of T2 cells and as a result, the cell adhesion is inhibited (see Example 7). So far, four types of syndecans are genetically known. Whether these syndecans are commonly owned or accommodated by each peptide, overlapping only by some degrees, otherwise mutually exclusive, was examined herein.

[5] = tested on: alveolar type II epithelial cells (T2 cells); assay: Adhesion of T2 cells to immobilized cell adhesion peptide substrates and inhibition by the same free peptide; conditions: for Inhibition degree of cell adhesion, Free peptide: T2 cells on immobilized peptide, same free peptide coexistent at 0.25 mg/ml; for Competitive inhibition of cell adhesion by the same free cell adhesion peptide: immobilized by MMAC or MAST, free peptide 0.25 mg/ml
Experimental: All treatments are assumed to be aseptic treatments. First, in the case of cell adhesion proteins, 10 μg/ml of a hydrophobic binding-adsorptive polymer, such as MMAC and MAST, and in the case of peptides, 50 μg/ml of MMAC and MAST is dissolved in ethanol, the solution is filtered and poured by 50 μl each into a 96-well with no surface treatment for cell culture, leave it stand still for a while, and then MMAC etc., are removed and air-drying is conducted. Next, 10-20 μg/ml of cell adhesion protein or 0.25 mg/ml of peptide is dissolved in 0.1 M triethanolamine buffer, a solution of pH 8.8, and the mixture was poured by 50 μl each into a 96-well previously coated with MMAC etc. The solution is reacted overnight while humidifying in an incubator heated at 37° C. After the reaction finishes, the reaction liquid is absorbed, the remaining reaction solution is rinsed out with the medium, and the immobilized preparation of cell adhesion proteins or peptides is prepared. The preparation, as described in the following Examples, can be used for cell cultures as cell adhesion protein or peptide substrates.
T2 cells suspended in the serum-free DMEM medium at the concentration of 6×10^4 cells/100 μl were seeded in the well prepared according to the manner in Example 6, wherein cell adhesion peptides were immobilized, and cultured in a CO2 incubator at 37° C. for 24 hours. Then, in accordance with the manner in Example 7, the cells were fixed with methanol, stained, and the absorbance was measured. Just before seeding the cells, the free peptides, the same kind as the cell adhesion peptides used for immobilization, were also added to the cell suspension, and the absorbance was measured after the culture in the same manner as described above. As to the case wherein FN was applied as a standard material, the measurement was conducted as well.
FIGS. 4 and 5 show the results obtained with the use of wells prepared by using laminin α-chain G-peptides and FIB-1 peptide as cell adhesion peptides, and as a hydrophobic binding-adsorptive polymer, MMAC was used in FIG. 4, and MAST was used in FIG. 5.

[6] = tested on: alveolar type II epithelial cells (T2 cells); assay: Inhibition of T2 cell adhesion to immobilized pseudomatrix by treatment with polyclonal antibodies for the peptides
Experimental: Each pseudomatrix prepared in Example 13 to which cell adhesion peptide was bound (MBAC-peptide) was diluted in DMEM medium to the concentration of 1-10 μg/ml, poured into a 96-well by 100 μl each, and left still overnight in a CO2 incubator to be adsorbed and immobilized on the wells. Non-adsorbed MBAC-peptides were removed by rinsing well with DMEM medium. Next, 100 μl of antibodies diluted with serum-free DMEM to the concentration of 4-10 μg/ml was poured into a well, incubated for 2-4 hours to let the antibodies bind to the peptides. Normal IgG was used for control groups. Antibodies were removed after the treatment, T2 cells suspended at the concentration of 6×10^5 cells/ml were seeded by 100 μl each. After 1-day serum-free culture, T2 cells were fixed with 100 μl of methanol for 5 minutes, and stained with 50 μl of 0.4% crystal violet for 30 minutes. Excessive staining was washed with water, and the number of adhering cells was counted based on the absorbance of cytoplasm (A595).

Substance	Inhibition degree of cell adhesion, Heparin ([1]; immobilized peptide treated with 100 μg/ml heparin 2 hours)	Binding strength to T2 cells, Comprehensive evaluation [2]	Binding strength to T2 cells, Ratio to FIB-1 [2]	Mixing ratio at the transitional midpoint [2]	Inhibition of adhesion of T2 cells to FN, Col I, LN and VN by free peptide [3]	Inhibition by free peptide of T2 cell adhesion to immobilized AG73 [4]	Inhibition by free peptide of T2 cell adhesion to immobilized FIB-1 [4]	Inhibition degree of cell adhesion, Free peptide [5]	Competitive inhibition of cell adhesion by the same free cell adhesion peptide [5]	Inhibition of cell adhesion to immobilized peptide by heparin treatment [1]	Inhibition by free peptide of T2 cell adhesion to immobilized AG81.2 and AG73T [4]	Cell adhesion ability of immobilized pseudomatrix compared with coated FN ([6]; MBAC-peptide 1-10 μg/ml in DMEM)	Inhibition of cell adhesion by treatment with antibodies for the peptides ([6]; antibodies 4-10 μg/ml, 2-4 hours)
GPLPSYLQFVGI	No	B	<1	about 1	inhibited adhesion of T2 cells	inhibited the cell adhesion	could inhibit						
VKTEYIKRKAFM		C	<1			cannot inhibit it	could not inhibit	No	without competitive inhibition	inhibition of adhesion	could not competitively inhibit their immobilized peptide, or even if they can, only slightly		
LVLFLNHGHFVA		B		about 1	inhibited adhesion of T2 cells	inhibited the cell adhesion	could inhibit						
LQQRRSVLRTKI		C				cannot inhibit it	could not inhibit	No	without competitive inhibition	inhibition of adhesion	could not competitively inhibit their immobilized peptide, or even if they can, only slightly		
KNRLTIELEVRT		C						No	without competitive inhibition	inhibition of adhesion			
TLQLQEGRLHFM		C						No	without competitive inhibition	inhibition of adhesion			
GEKSQFSIRLKT		C						No	without competitive inhibition	inhibition of adhesion			
RNRLHLSMLVRP		C							without competitive inhibition	inhibition of adhesion			
MBAC-AG73T: pseudomatrix: MBAC polymer reacted with AG73T peptide (LQQRRSVLRTKI)												the same level of cell adhesion ability as in the case where FN was coated	specifically inhibited
